pEC50: −log10 of the molar value. Values after ≈ are worked out from the molar mass of the structure shown. Where two headings read alike, the source gives them in different places. Positions of bridges follow the written chain, without caps; N, C: chain ends. Non-standard residues stand in square brackets, D forms with d. Residues, ends and D or L forms follow the SMILES beside them. ξ: configuration not given here. Lys(N3) = [N-]=[N+]=NCCCC[C@H](N)C(=O)O; R8 = C=CCCCCCC[C@@](C)(N)C(=O)O; ξαMeF = CC(N)(Cc1ccccc1)C(=O)O; Cba = N[C@@H](CC1CCC1)C(=O)O; S5 = C=CCCC[C@](C)(N)C(=O)O; βAla = NCCC(=O)O
Columns and labels:
[1] = Experimental LogD (partition coefficient); settings: for logD: not stated, Partition Coeff LogD
[2] = system: CellSensor p53RE-bla HCT-116 Cell Line; settings: 72 h
Procedure: (§1) The medium for CellSensor™ p53RE-bla HCT-116 cells was McCoy’s 5 A Medium (GIBCO16600-002) supplied with 10% FBS (Hyclone, SH30406.05), 100 U/100ug/ml of Pen/Strep (SolarBio, P1400) and 5 μg/ml of blasticidin (GIBCO, A11139). The medium for Ca Ski cells was RPMI1640 (Hyclone, SH3080901B) supplied with 10% FBS and 100 U/100ug/ml of Pen/Strep. All cells were kept in humidified incubators with 5% CO2 at 37 °C. Culture media was changed after one day of subculturing and cells were passed again when there was 70–80% confluence. One day before the assay, the cells were trypsinized, collected, counted and viability was determined. […] The plates were kept in humidified incubators with 5% CO2 at 37 °C overnight. Compounds were prepared as a 10 point, 3x serial dilution in 100% DMSO, starting from a top concentration of 10 mM. […] At the end of the incubation the assay plate was equilibrated at room temperature for approximately 30 minutes prior to the addition of 25 uL of CellTiter-Glo® 2.0 Reagent. The assay plate was mixed for 2 minutes on an orbital shaker to induce cell lysis. Next, the plate was incubated at room temperature for 10 minutes to stabilize the luminescent signal prior to recording the luminescence on a plate reader.

Ca Ski cell line = settings: 72 h
Procedure: as §1

[3] = Lactate dehydrogenase (LDH) release assay; type: cell-based
In short: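 HCT116 cells stably carrying a p53-responsive β-lactamase reporter, seeded at 8000 cells/well, exposed to compound with 0.5% final DMSO. LDH release read with the CytoTox-ONE membrane integrity kit. Values are geometric means of at least three biological replicates.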

in vitro = settings: Nanoclick permeability assay EC50
In short: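 Azido-peptide permeability was read as loss of NanoBRET signal (donor 450 nm, acceptor 610 nm) after adding NanoBret618-azide at 10 μM final.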

[4] = Solubility assay (kinetic solubility, PBS pH 7); type: physicochemical
In short: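 Quantitation uses an external standard at 100 µM, prepared from 10 mM stock in acetonitrile:methanol:DMSO (10:80:10). Solubility (µM) = (peak area of sample ÷ peak area of standard) × standard concentration.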

[5] = pH 7, aqueous buffer, kinetic from dmso stock, pH 7, PBS, read-out: Solubility

Row | Compound | EPSA (physchem) | logD [1] | pEC50 [2] | pEC50 (Ca Ski cell line) | pEC50 ([3]; LDH: Cytotoxicity assay EC50) | cell entry EC50 (in vitro) | Partition Coeff LogD [1] | Solubility ([4]; pH 7, PBS) | solubility kinetic ([4]; pH 7, Solubility) | solubility kinetic [4, 5] | pEC50 ([3]; LDH: Cytotoxicity assay: EC50)
1 | CC(=O)N[C@@H](CCCCN=[N+]=[N-])C(=O)NCCC(=O)N[C@@H](CC(C)C)C(=O)N[C@H](C(=O)N[C@@H](Cc1ccccc1)C(=O)N[C@]1(C)CCCCCCC=CCCC[C@@](C)(C(=O)N[C@@H](CO)C(=O)N[C@@H](C)C(=O)N[C@@H](C)C(N)=O)NC(=O)[C@H](CC2CCC2)NC(=O)[C@H](CCCNC(=N)N)NC(=O)[C@H](C)NC(=O)[C@H](Cc2c[nH]c3ccccc23)NC(=O)[C@H](Cc2ccc(O)cc2)NC(=O)[C@H](CCC(=O)O)NC1=O)[C@@H](C)O [MP-556] (Ac-[Lys(N3)][βAla]LTF[R8]EYWAR[Cba][S5]SAA-NH2; staple 6-13) | 221 A^2 | 3.15 | 5.50 | < 4.30 | < 4.30 | 0.149 µM | – | – | – | – | –
2 | CC(=O)N[C@@H](CCCCN=[N+]=[N-])C(=O)NCCC(=O)N[C@@H](CC(C)C)C(=O)N[C@H](C(=O)N[C@@H](Cc1ccccc1)C(=O)N[C@]1(C)CCCCCCC=CCCC[C@@](C)(C(=O)N[C@@H](C)C(=O)N[C@@H](CC(C)C)C(=O)N[C@@H](C)C(=O)N[C@@H](C)C(=O)N[C@@H](C)C(=O)N[C@H](C)C(N)=O)NC(=O)[C@H](CC2CCC2)NC(=O)[C@H](CCC(N)=O)NC(=O)[C@H](C)NC(=O)[C@H](Cc2c[nH]c3ccccc23)NC(=O)[C@H](Cc2ccc(O)cc2)NC(=O)[C@H](CCC(=O)O)NC1=O)[C@@H](C)O [MP-968] (Ac-[Lys(N3)][βAla]LTF[R8]EYWAQ[Cba][S5]ALAAA[dA]-NH2; staple 6-13) | – | – | 5.85 | 4.37 | < 4.29 | 4.2 µM | Poorly Behaved | Poorly Behaved | – | – | –
3 | CC(=O)N[C@@H](CCCCN=[N+]=[N-])C(=O)NCCC(=O)N[C@@H](CC(C)C)C(=O)N[C@H](C(=O)N[C@@H](Cc1ccccc1)C(=O)N[C@]1(C)CCCCCCC=CCCC[C@@](C)(C(=O)N[C@@H](C)C(=O)N[C@H](C)C(=O)N[C@@H](C)C(=O)N[C@H](C)C(=O)N[C@@H](C)C(=O)N[C@H](C)C(N)=O)NC(=O)[C@H](CC2CCC2)NC(=O)[C@H](CCC(N)=O)NC(=O)[C@H](C)NC(=O)[C@H](Cc2c[nH]c3ccccc23)NC(=O)[C@H](Cc2ccc(O)cc2)NC(=O)[C@H](CCC(=O)O)NC1=O)[C@@H](C)O [MP-056] (Ac-[Lys(N3)][βAla]LTF[R8]EYWAQ[Cba][S5]A[dA]A[dA]A[dA]-NH2; staple 6-13) | – | 2.83 | 5.48 | < 4.30 | – | 5.21 µM | – | – | 157 µM (≈ 340 µg/mL) | 147 µM (≈ 319 µg/mL) | < 4.29
4 | CC(=O)N[C@@H](CCCCN=[N+]=[N-])C(=O)NCCC(=O)N[C@@H](CC(C)C)C(=O)N[C@H](C(=O)N[C@@H](Cc1ccccc1)C(=O)N[C@]1(C)CCCCCCC=CCCC[C@@](C)(C(=O)N[C@@H](C)C(=O)N[C@@H](C)C(=O)N[C@@H](C)C(=O)N[C@@H](C)C(=O)N[C@@H](C)C(=O)N[C@@H](CCC(=O)O)C(N)=O)NC(=O)[C@H](CC2CCC2)NC(=O)[C@H](CCC(N)=O)NC(=O)[C@H](C)NC(=O)[C@H](Cc2c[nH]c3ccccc23)NC(=O)[C@H](Cc2ccc(O)cc2)NC(=O)[C@H](CCC(=O)O)NC1=O)[C@@H](C)O [MP-836] (Ac-[Lys(N3)][βAla]LTF[R8]EYWAQ[Cba][S5]AAAAAE-NH2; staple 6-13) | – | 2.43 | 5.98 | < 4.30 | < 4.29 | 1.77 µM | – | – | – | 164 µM (≈ 365 µg/mL) | –
5 | CC(=O)N[C@@H](CCCCN=[N+]=[N-])C(=O)NCCC(=O)N[C@@H](CC(C)C)C(=O)N[C@H](C(=O)N[C@@H](Cc1ccccc1)C(=O)N[C@]1(C)CCCCCCC=CCCC[C@@](C)(C(=O)N[C@@H](CO)C(=O)N[C@@H](CCC(=O)O)C(=O)N[C@@H](C)C(N)=O)NC(=O)[C@H](CC2CCC2)NC(=O)[C@H](CCC(N)=O)NC(=O)[C@H](C)NC(=O)[C@H](Cc2c[nH]c3ccccc23)NC(=O)[C@H](Cc2ccc(O)cc2)NC(=O)[C@H](CCC(=O)O)NC1=O)[C@@H](C)O [MP-898] | – | 2.4 | 5.12 | < 4.30 | – | 0.808 µM | – | – | – | 145 µM (≈ 294 µg/mL) | < 4.29
6 | CC(=O)N[C@@H](CCCCN=[N+]=[N-])C(=O)NCCC(=O)N[C@@H](CC(C)C)C(=O)N[C@H](C(=O)N[C@@H](Cc1ccccc1)C(=O)N[C@]1(C)CCCCCCC=CCCC[C@@](C)(C(=O)N[C@@H](C)C(=O)N[C@@H](C)C(=O)N[C@@H](Cc2ccccc2)C(=O)N[C@@H](C)C(=O)N[C@@H](C)C(=O)NC(C)(Cc2ccccc2)C(N)=O)NC(=O)[C@H](CC2CCC2)NC(=O)[C@H](CCC(N)=O)NC(=O)[C@H](C)NC(=O)[C@H](Cc2c[nH]c3ccccc23)NC(=O)[C@H](Cc2ccc(O)cc2)NC(=O)[C@H](CCC(=O)O)NC1=O)[C@@H](C)O (stereo partly shown) [MP-288] (Ac-[Lys(N3)][βAla]LTF[R8]EYWAQ[Cba][S5]AAFAA[ξαMeF]-NH2; staple 6-13) | – | 4.11 | 5.56 | < 4.30 | – | 1.58 µM | – | – | – | 12 µM (≈ 28 µg/mL) | < 4.29
7 | CC(=O)N[C@@H](CCCCN=[N+]=[N-])C(=O)NCCC(=O)N[C@@H](CC(C)C)C(=O)N[C@H](C(=O)N[C@@H](Cc1ccccc1)C(=O)N[C@]1(C)CCCCCCC=CCCC[C@@](C)(C(=O)N[C@@H](C)C(=O)N[C@@H](C)C(=O)N[C@@H](C)C(=O)N[C@@H](C)C(=O)N[C@@H](CCC(=O)O)C(=O)N[C@H](C)C(N)=O)NC(=O)[C@H](CC2CCC2)NC(=O)[C@H](CCC(N)=O)NC(=O)[C@H](C)NC(=O)[C@H](Cc2c[nH]c3ccccc23)NC(=O)[C@H](Cc2ccc(O)cc2)NC(=O)[C@H](CCC(=O)O)NC1=O)[C@@H](C)O [MP-837] (Ac-[Lys(N3)][βAla]LTF[R8]EYWAQ[Cba][S5]AAAAE[dA]-NH2; staple 6-13) | – | 2.53 | 6.18 | < 4.30 | < 4.29 | 1.52 µM | – | – | – | 160 µM (≈ 356 µg/mL) | –
8 | CC(=O)N[C@@H](CCCCN=[N+]=[N-])C(=O)NCCC(=O)N[C@@H](CC(C)C)C(=O)N[C@H](C(=O)N[C@@H](Cc1ccccc1)C(=O)N[C@]1(C)CCCCCCC=CCCC[C@@](C)(C(=O)N[C@@H](CCC(=O)O)C(=O)N[C@@H](C)C(=O)N[C@@H](Cc2ccccc2)C(=O)N[C@@H](C)C(=O)N[C@@H](CCC(N)=O)C(=O)N[C@@H](Cc2ccccc2)C(N)=O)NC(=O)[C@H](CC2CCC2)NC(=O)[C@H](CCC(N)=O)NC(=O)[C@H](C)NC(=O)[C@H](Cc2c[nH]c3ccccc23)NC(=O)[C@H](Cc2ccc(O)cc2)NC(=O)[C@H](CCC(=O)O)NC1=O)[C@@H](C)O [MP-832] (Ac-[Lys(N3)][βAla]LTF[R8]EYWAQ[Cba][S5]EAFAQF-NH2; staple 6-13) | – | 3.01 | 5.38 | 4.65 | < 4.29 | 4.88 µM | – | – | – | 157 µM (≈ 382 µg/mL) | –
9 | CC(=O)N[C@@H](CCCCN=[N+]=[N-])C(=O)NCCC(=O)N[C@@H](CC(C)C)C(=O)N[C@H](C(=O)N[C@@H](Cc1ccccc1)C(=O)N[C@]1(C)CCCCCCC=CCCC[C@@](C)(C(=O)N[C@@H](C)C(=O)N[C@@H](C)C(=O)N[C@@H](C)C(=O)N[C@@H](C)C(=O)N[C@@H](C)C(=O)N[C@@H](C)C(=O)N[C@@H](C)C(=O)N[C@@H](C)C(=O)N[C@@H](C)C(N)=O)NC(=O)[C@H](CC2CCC2)NC(=O)[C@H](CCC(N)=O)NC(=O)[C@H](C)NC(=O)[C@H](Cc2c[nH]c3ccccc23)NC(=O)[C@H](Cc2ccc(O)cc2)NC(=O)[C@H](CCC(=O)O)NC1=O)[C@@H](C)O [MP-759] (Ac-[Lys(N3)][βAla]LTF[R8]EYWAQ[Cba][S5]AAAAAAAAA-NH2; staple 6-13) | – | 3.49 | 5.61 | 4.59 | – | 3.41 µM | – | – | – | 15 µM (≈ 35.7 µg/mL) | < 4.29
10 | CC(=O)N[C@@H](CCCCN=[N+]=[N-])C(=O)NCCC(=O)N[C@@H](CC(C)C)C(=O)N[C@H](C(=O)N[C@@H](Cc1ccccc1)C(=O)N[C@]1(C)CCCCCCC=CCCC[C@@](C)(C(=O)N[C@@H](CO)C(=O)N[C@@H](C)C(=O)N[C@@H](C)C(N)=O)NC(=O)[C@H](CC2CCC2)NC(=O)[C@H](CCC(N)=O)NC(=O)[C@H](Cc2c[nH]c3ccccc23)NC(=O)[C@H](Cc2c[nH]c3ccccc23)NC(=O)[C@H](Cc2ccc(O)cc2)NC(=O)[C@H](CCC(=O)O)NC1=O)[C@@H](C)O [MP-186] (Ac-[Lys(N3)][βAla]LTF[R8]EYWWQ[Cba][S5]SAA-NH2; staple 6-13) | 238 A^2 | 3.26 | 5.24 | 4.67 | < 4.30 | 0.194 µM | – | – | – | – | –

Reference: paper PMC10786919, “Design-rules for stapled peptides with in vivo activity and their application to Mdm2/X antagonists” (Nature Communications, 2024)
